Paper PMC4598770, “Galectin Binding to Neo-Glycoproteins: LacDiNAc Conjugated BSA as Ligand for Human Galectin-3” (Biomolecules, 2015)

Target: T1, human Gal-3 (Homo sapiens, UniProt P17931)
T1 construct: made in house; host or cells: E. coli Rosetta (DE3) pLysS
Assay: Competitive inhibition of Gal-3 binding to immobilized ASF
Details: for IC50: 5 µM galectin-3 binding to immobilized ASF; for Relative potency: related to the corresponding tetrasaccharide (4 or 5); for Relative potency per glycan: related to the corresponding tetrasaccharide and to one binding site
Method: Neo-glycoproteins were used as inhibitors of Gal-3 to ASF binding in competitive inhibition assays performed as described. The standard glycoprotein ASF (Sigma-Aldrich) was immobilized in microtiter plates as described above for neo-glycoproteins. After blocking, 5 µM Gal-3 and varying concentration of 11j, 11k, 11g and 12j, 12k, 12g were simultaneously incubated for 1 h followed by detection of bound Gal-3 as described above. Measured data were fitted and IC50 values calculated using Sigma Plot software (Systat software GmbH).

T1 sequence (P17931 whole entry): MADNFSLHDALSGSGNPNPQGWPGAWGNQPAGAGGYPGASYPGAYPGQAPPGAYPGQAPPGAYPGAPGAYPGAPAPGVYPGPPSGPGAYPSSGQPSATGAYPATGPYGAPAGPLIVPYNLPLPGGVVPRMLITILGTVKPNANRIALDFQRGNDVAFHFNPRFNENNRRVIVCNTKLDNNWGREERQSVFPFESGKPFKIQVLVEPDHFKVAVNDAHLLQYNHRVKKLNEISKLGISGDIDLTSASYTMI

| IC50 [µM] | Relative potency (5 µM galectin-3, ASF) | Relative potency per glycan (5 µM galectin-3, ASF) | Higher inhibition of Gal-3 binding compared to 4 (5 µM galectin-3, ASF, compared with LacNAc-LacNAc (4)) [fold] | Compound |
| --- | --- | --- | --- | --- |
| 13 ± 3.43 | 1.0 ± 0.26 | 1.0 ± 0.26 | – | CC(=O)N[C@@H]1[C@@H](O)[C@H](O[C@@H]2O[C@H](CO)[C@H](O)[C@H](O[C@@H]3O[C@H](CO)[C@@H](O[C@@H]4O[C@H](CO)[C@H](O)[C@H](O)[C@H]4O)[C@H](O)[C@H]3NC(C)=O)[C@H]2O)[C@@H](CO)O[C@H]1NC(=S)NCCNC(=O)OC(C)(C)C [Compound 4, Galβ1, 4GlcNAcβ1, 3Galβ1, 4GlcNAcβ1-linker-NH2-tBoc] |
| 7.23 ± 0.87 | 1.0 ± 0.12 | 1.0 ± 0.12 | 1.5 | CC(=O)N[C@@H]1[C@@H](O)[C@H](O[C@@H]2O[C@H](CO)[C@H](O)[C@H](O[C@@H]3O[C@H](CO)[C@@H](O[C@@H]4O[C@H](CO)[C@H](O)[C@H](O)[C@H]4NC(C)=O)[C@H](O)[C@H]3NC(C)=O)[C@H]2O)[C@@H](CO)O[C@H]1NC(=S)NCCNC(=O)OC(C)(C)C [Compound 5, GalNAcβ1,4GlcNAcβ1,3Galβ1,4GlcNAcβ1-linker-NH2-tBoc] |
